Data: PubChem BioAssay AID248 (DTP/NCI, 2004)
“And” between values parts separate entries of the source, which are not always exact repeats. Equal values may be shown once. Toxic doses and inconclusive results are not listed. Rule as the data show it: active = T/C of 150% or more; inactive = T/C below 125%.

Tested on: L1210 leukemia ip in BDF1 mice, survival T/C
Assay: NCI In Vivo Anticancer Drug Screen. Data for tumor model L1210 Leukemia (intraperitoneal) in B6D2F1 (BDF1) mice
Details: endpoint: mean survival time, higher = longer survival
Summary of the method: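 Transplantable tumor model; survival measured in treated vs vehicle control mice. Value = treated/control.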

[1] = dose: 50.0 mg/kg/injection, schedule: Q01DX001 (ip), vehicle: carboxymethylcellulose (CMC)
[2] = dose: 100.0 mg/kg/injection, schedule: Q01DX001 (ip), vehicle: carboxymethylcellulose (CMC)
[3] = dose: 200.0 mg/kg/injection, schedule: Q01DX001 (ip), vehicle: carboxymethylcellulose (CMC)
[4] = dose: 400.0 mg/kg/injection, schedule: Q01DX001 (ip), vehicle: carboxymethylcellulose (CMC)
[5] = dose: 100.0 mg/kg/injection, schedule: Q01DX001 (ip), vehicle: saline with Tween-80
[6] = dose: 100.0 mg/kg/injection, schedule: Q04DX003 (ip), vehicle: saline
[7] = dose: 200.0 mg/kg/injection, schedule: Q04DX003 (ip), vehicle: saline
[8] = dose: 400.0 mg/kg/injection, schedule: Q04DX003 (ip), vehicle: saline
[9] = dose: 100.0 mg/kg/injection, schedule: Q01DX009 (ip), vehicle: Klucel (hydroxypropylcellulose) (HPC)
[10] = dose: 200.0 mg/kg/injection, schedule: Q01DX009 (ip), vehicle: Klucel (hydroxypropylcellulose) (HPC)
[11] = dose: 400.0 mg/kg/injection, schedule: Q01DX009 (ip), vehicle: Klucel (hydroxypropylcellulose) (HPC)
[12] = dose: 100.0 mg/kg/injection, schedule: Q01DX001 (ip), vehicle: saline
[13] = dose: 200.0 mg/kg/injection, schedule: Q01DX001 (ip), vehicle: saline
[14] = dose: 400.0 mg/kg/injection, schedule: Q01DX001 (ip), vehicle: saline

Measured: T/C

CN1C(=O)C/C(=C/[N+](=O)[O-])c2ccccc21
inactive: [1] 101 % of control | [2] 97 % of control

CC(=O)OCC1OC(OC2CCCc3c(O)c4c(c(O)c32)C(=O)c2ccccc2C4=O)C(OC(C)=O)C(OC(C)=O)C1OC(C)=O (stereo not drawn)
inactive: dose: 40.0 mg/kg/injection, schedule: Q01DX001 (ip), vehicle: saline 86 % of control | dose: 80.0 mg/kg/injection, schedule: Q01DX001 (ip), vehicle: saline 92 % of control

C/C(O)=C(\C#N)c1ccc(Cl)cc1
inactive: dose: 12.5 mg/kg/injection, schedule: Q01DX001 (ip), vehicle: carboxymethylcellulose (CMC) 100 % of control | dose: 12.5 mg/kg/injection, schedule: Q04DX003 (ip), vehicle: carboxymethylcellulose (CMC) 100 % of control and 104 % of control | dose: 25.0 mg/kg/injection, schedule: Q01DX001 (ip), vehicle: carboxymethylcellulose (CMC) 108 % of control | dose: 25.0 mg/kg/injection, schedule: Q01DX009 (ip), vehicle: carboxymethylcellulose (CMC) 103 % of control and 113 % of control | dose: 25.0 mg/kg/injection, schedule: Q04DX002 (ip), vehicle: carboxymethylcellulose (CMC) 99 % of control and 100 % of control | dose: 25.0 mg/kg/injection, schedule: Q04DX003 (ip), vehicle: carboxymethylcellulose (CMC) 98 % of control and 90 % of control | [1] 103 % of control and 111 % of control | dose: 50.0 mg/kg/injection, schedule: Q01DX009 (ip), vehicle: carboxymethylcellulose (CMC) 96 % of control and 100 % of control | dose: 50.0 mg/kg/injection, schedule: Q04DX002 (ip), vehicle: carboxymethylcellulose (CMC) 102 % of control and 103 % of control | dose: 50.0 mg/kg/injection, schedule: Q04DX003 (ip), vehicle: carboxymethylcellulose (CMC) 94 % of control and 98 % of control | [2] 97 % of control and 102 % of control | dose: 100.0 mg/kg/injection, schedule: Q01DX009 (ip), vehicle: carboxymethylcellulose (CMC) 94 % of control | dose: 100.0 mg/kg/injection, schedule: Q04DX002 (ip), vehicle: carboxymethylcellulose (CMC) 93 % of control and 90 % of control

C=C(C)[C@@H](/C=C/[C@@H](C)[C@H]1CC[C@H]2C3=CC[C@H]4C[C@@H](O)CC[C@]4(C)[C@H]3CC[C@]12C)CC
inactive: [2] 96 % of control | [3] 100 % of control

c1ccc2c(c1)ccc1[nH]c3c(c12)CCCC3
inactive: [2] 95 % of control | [3] 90 % of control | [4] 97 % of control

Oc1ccc2ccccc2c1/C=N/Nc1ccc2ccccc2n1
inactive: dose: 25.0 mg/kg/injection, schedule: Q01DX001 (ip), vehicle: saline with Tween-80 97 % of control | dose: 50.0 mg/kg/injection, schedule: Q01DX001 (ip), vehicle: saline with Tween-80 101 % of control | [5] 98 % of control

CN(C)C(=O)Nc1ccc(Cl)cc1
inactive: dose: 100.0 mg/kg/injection, schedule: Q01DX009 (ip), vehicle: saline 91 % of control | [6] 93 % of control | dose: 200.0 mg/kg/injection, schedule: Q01DX009 (ip), vehicle: saline 100 % of control | [7] 98 % of control | [8] 101 % of control

COc1ccc(-c2c(C)c(C)[nH]c(=O)c2C(=O)O)c(OCc2ccccc2)c1OC
inactive: dose: 100.0 mg/kg/injection, schedule: Q01DX009 (ip), vehicle: saline with Tween-80 100 % of control | dose: 200.0 mg/kg/injection, schedule: Q01DX009 (ip), vehicle: saline with Tween-80 100 % of control | dose: 400.0 mg/kg/injection, schedule: Q01DX009 (ip), vehicle: saline with Tween-80 97 % of control

CCOc1ccc(C(=O)/C=C\c2ccc(N(CC)CC)cc2)cc1
inactive: [9] 96 % of control | [10] 93 % of control | [11] 91 % of control

COc1cccc(C2CCCCCC2OS(C)(=O)=O)c1OC (stereo not drawn)
inactive: [12] 109 % of control | [6] 102 % of control | [13] 102 % of control | [7] 109 % of control | [14] 112 % of control | [8] 102 % of control

CC(C)C(=O)c1ccc(Cl)s1
inactive: dose: 100.0 mg/kg/injection, schedule: Q04DX003 (sc), vehicle: olive oil, sesame oil, peanut oil 104 % of control | dose: 200.0 mg/kg/injection, schedule: Q04DX003 (sc), vehicle: olive oil, sesame oil, peanut oil 107 % of control | dose: 400.0 mg/kg/injection, schedule: Q04DX003 (sc), vehicle: olive oil, sesame oil, peanut oil 96 % of control

CC12CC=C3c4ccc(S)cc4CCC3C1CCC2=O (stereo not drawn)
inactive: [5] 96 % of control | dose: 200.0 mg/kg/injection, schedule: Q01DX001 (ip), vehicle: saline with Tween-80 89 % of control | dose: 400.0 mg/kg/injection, schedule: Q01DX001 (ip), vehicle: saline with Tween-80 89 % of control

CN1CC2CCCCC1C2OC(=O)C(c1ccccc1)c1ccccc1 (stereo not drawn)
inactive: dose: 75.0 mg/kg/injection, schedule: Q01DX001 (ip), vehicle: saline 110 % of control | dose: 150.0 mg/kg/injection, schedule: Q01DX001 (ip), vehicle: saline 101 % of control

Cc1ccc(NC(=S)N(CCC#N)C(C)C)cc1C
inactive: [9] 110 % of control | [10] 106 % of control | [11] 103 % of control

Cc1ccc(S(=O)(=O)N/N=C/c2ccc(O)cc2)cc1
inactive: dose: 87.5 mg/kg/injection, schedule: Q04DX003 (ip), vehicle: Klucel (hydroxypropylcellulose) (HPC) 97 % of control | dose: 175.0 mg/kg/injection, schedule: Q04DX003 (ip), vehicle: Klucel (hydroxypropylcellulose) (HPC) 105 % of control | dose: 350.0 mg/kg/injection, schedule: Q04DX003 (ip), vehicle: Klucel (hydroxypropylcellulose) (HPC) 103 % of control

O=[N+]([O-])c1ccccc1SSSc1ccccc1[N+](=O)[O-]
inactive: [12] 89 % of control | [13] 93 % of control | [14] 101 % of control

CCOc1ccc(OCC(=O)O)cc1
inactive: dose: 100.0 mg/kg/injection, schedule: Q04DX003 (ip), vehicle: Klucel (hydroxypropylcellulose) (HPC) 93 % of control | dose: 200.0 mg/kg/injection, schedule: Q04DX003 (ip), vehicle: Klucel (hydroxypropylcellulose) (HPC) 89 % of control | dose: 400.0 mg/kg/injection, schedule: Q04DX003 (ip), vehicle: Klucel (hydroxypropylcellulose) (HPC) 89 % of control

CC(=O)OC1CCC2(C)C(=CCC3C2CCC2(C)C3CC3C(c4ccccc4Cl)=NN(c4ccccc4)C32C#N)C1 (stereo not drawn)
inactive: dose: 100.0 mg/kg/injection, schedule: Q04DX002 (ip), vehicle: Klucel (hydroxypropylcellulose) (HPC) 95 % of control | dose: 200.0 mg/kg/injection, schedule: Q04DX002 (ip), vehicle: Klucel (hydroxypropylcellulose) (HPC) 95 % of control | dose: 400.0 mg/kg/injection, schedule: Q04DX002 (ip), vehicle: Klucel (hydroxypropylcellulose) (HPC) 95 % of control

CCCCCNC(=O)CC(O)C(=O)NCCCCC (stereo not drawn)
inactive: dose: 100.0 mg/kg/injection, schedule: Q01DX001 (ip), vehicle: other 87 % of control | dose: 200.0 mg/kg/injection, schedule: Q01DX001 (ip), vehicle: other 98 % of control | dose: 400.0 mg/kg/injection, schedule: Q01DX001 (ip), vehicle: other 96 % of control

CCOc1nsc(OCC)n1
inactive: dose: 75.0 mg/kg/injection, schedule: Q01DX009 (ip), vehicle: other 103 % of control | [6] 98 % of control | dose: 150.0 mg/kg/injection, schedule: Q01DX009 (ip), vehicle: other 107 % of control | [7] 101 % of control | dose: 300.0 mg/kg/injection, schedule: Q01DX009 (ip), vehicle: other 93 % of control | [8] 103 % of control

O=c1[nH]cc(COCC(F)(F)C(F)F)c(=O)[nH]1
inactive: dose: 50.0 mg/kg/injection, schedule: Q01DX005 (ip), vehicle: other 101 % of control | dose: 100.0 mg/kg/injection, schedule: Q01DX005 (ip), vehicle: other 104 % of control | dose: 200.0 mg/kg/injection, schedule: Q01DX005 (ip), vehicle: other 95 % of control | dose: 400.0 mg/kg/injection, schedule: Q01DX005 (ip), vehicle: other 95 % of control

CCC1CN2CCc3cc(OC)c(OC)cc3C2CC1CC1c2cc(OC)c(OC)cc2CCN1C(=O)C1CCCN1 (stereo not drawn)
inactive: dose: 50.0 mg/kg/injection, schedule: Q01DX001 (ip), vehicle: saline 95 % of control | [12] 111 % of control | [13] 95 % of control

O=[N+]([O-])/C=C\c1cccc(OCc2ccccc2)c1
inactive: [1] 101 % of control | [2] 103 % of control | [3] 92 % of control | [4] 97 % of control

O=C1NC2(c3ccccc3)CCCCC2O1 (stereo not drawn)
inactive: dose: 75.0 mg/kg/injection, schedule: Q01DX001 (ip), vehicle: acetone 98 % of control and 92 % of control | dose: 150.0 mg/kg/injection, schedule: Q01DX001 (ip), vehicle: acetone 102 % of control | dose: 300.0 mg/kg/injection, schedule: Q01DX001 (ip), vehicle: acetone 100 % of control and 89 % of control
